Here are results for 27 molecules from US5045548A, “Quinolyl methoxy compounds and their use as antiasthmatic agents” (Fujisawa Pharmaceutical Company, Ltd., priority 1987, dated 1991).

Molecules are shown by their SMILES. Structures can show the parent of a compound that is named as a salt.

The first assay relates to SRS-A (Slow Reacting Substance of Anaphylaxis) synthesis in rat polymorpholeukocyte (PMN). Description: Inhibitory Activity of SRS-A synthesis in rat polymorpholeukocyte (PMN) using the calcium ionophore A23187 (i-LTC4 by radioimmunoassay). The format is cell-based, rat (male Sprague-Dawley). Conditions: 10 μM A23187, 15 min, 37° C., hydrochloride. The method, then:
Test I: Inhibitory Activity of SRS-A (Slow Reacting Substance of Anaphylaxis) synthesis in rat polymorpholeukocyte (PMN) of using the calcium ionophore Male Sprague-Dawley rats weighing 250-300 g were anesthetized with ether and each was injected intraperitoneally with 20 ml of 0.1% clycogen (from Oyster). After 20 hours the rats were sacrificed and PMN were recovered in rinse of the peritoneal cavity with 10 ml Dulbeccos PBS (components in g/L: CaCl2 0.1, KH2 PO4 0.2, MgCl2.6H2 O 0.1, NaCl 8.0, Na2 HPO4.7H2 O 2.16; pH7.4). These rinses were filtered through nylon wool filter and centrifuged for 5 min at 1000 xg. The pellet was suspended in Dulbeccos PBS and centrifuged for 5 min at 1000 xg. The pellet was resuspended in Dulbeccos PBS and adjusted the cell concentration to 10^7 cells/ml with Dulbeccos PBS. Samples were dissolved in ethanol and dispersed in Dulbeccos PBS to give a concentration of 10^-10 -10^-5 M Antibiotic A23187; calcium ionophor ([…] Diagnostics) (hereinafter referred to A23187) in DMSO(10mM) was diluted with Dulbeccos PBS to give the concentration of 1 mM. Aliquots of the cell suspension (1×10^7 cells/ml, 0.98 ml) were equilibrated for 30 min at 37° C. Solution of sample(10 μl) was added and incubated for 15 min at 37° C. before the addition of 10 μl of A23187 solution. Thus the final incubation volume of 1 ml contained approximately 1×10^7 cells, 10^-10 -10^-5 M samples and 10 μM A23187. Incubation with A23187 were continued for 15 min at 37° C. The reactions were terminated by setting the assay tubes in ice bath to chill as rapidly as possible to 4° C. The test tubes were centrifuged at 1500 xg for 5 min at 4° C. and decanted the supernatants into the tubes and kept cold prior to assaying. The concentration of i-LTC4 in the cell-free supernatants from the incubations were determined by specific radioimmunoassay. The mean values of i-LTC4 (these incubations were carried out in duplicate) of each sample were calculated and the effect of samples on the synthesis of the leukotrienes was presented as a percentage of the value in the absence of samples.
Regarding `CCCCC1(CCCC)CCc2c(OCc3ccc4ccccc4n3)cccc2C1O` (single isomer, unassigned; (+)) [Example 41, (+)-2,2-dibutyl-5-(2-quinolylmethoxy)-1,2,3,4-tetrahydro-1-naphthol hydrochloride], the half-inhibitory concentration (IC50) (usually the concentration at which inhibition is half-maximal) came out at 5.6 nM.

Staying with this assay, now noted: Rattus norvegicus, 0.25 h, 10 μM A23187, 15 min, 37° C.
Consider `CCCCC1(CCCC)Cc2c(OCc3ccc4ccccc4n3)cccc2C1=O` [Example 5, 2,2-Dibutyl-4-(2-quinolylmethoxy)-1-indanone hydrochloride], for which the half-inhibitory concentration (IC50) is 280 nM.
As for `CCCCC1(CCCC)CCc2c(OCc3ccc4ccccc4n3)cccc2C1O` (stereo not drawn) [Example 6, 2,2-dibutyl-5-(2-quinolylmethoxy)-1,2,3,4-tetrahydro-1-naphthol], the IC50 stood at 8.7 nM.
Still for that read-out and setting: with `CCCCC1(CCCC)CCc2c(OCc3ccccn3)cccc2C1O` (stereo not drawn) [Example 7, 2,2-dibutyl-5-(2-pyridylmethoxy)-1,2,3,4-tetrahydro-1-naphthol] the figure was 81 nM; with `CCCCC1(CCCC)CCc2c(OCc3ccccc3C(N)=O)cccc2C1O` (stereo not drawn) [Example 8, 2,2-dibutyl-5-(2-carbamoylbenzyloxy)-1,2,3,4-tetrahydro-1-naphthol], 160 nM.
The same measure, in the same setting: with `CCCCC1(CCCC)CCc2c(OCc3nc4ccccc4s3)cccc2C1O` (stereo not drawn) [Example 11, 2,2-Dibutyl-5-(2-benzothiazolylmethoxy)-1,2,3,4-tetrahydro-1-naphthol] the figure was 50 nM; with `CCCCC1(CCCC)CCc2c(OCc3ccncc3)cccc2C1O` (stereo not drawn) [Example 12, 2,2-Dibutyl-5-(4-pyridylmethoxy)-1,2,3,4-tetrahydro-1-naphthol], 120 nM.
Same read-out and setting: with `CCCC1(CCC)CCc2c(OCc3ccc4ccccc4n3)cccc2C1O` (stereo not drawn) [Example 13, 2,2-Dipropyl-5-(2-quinolylmethoxy)-1,2,3,4-tetrahydro-1-naphthol] the figure was 15 nM; with `CCCCCC1(CCCCC)CCc2c(OCc3ccc4ccccc4n3)cccc2C1O` (stereo not drawn) [Example 14, 2,2-Dipentyl-5-(2-quinolylmethoxy)-1,2,3,4-tetrahydro-1-naphthol], 42 nM.
Turning to `CCCCC1(CCCC)Cc2c(OCc3ccc4ccccc4n3)cccc2C1O` (stereo not drawn) [Example 15, 2,2-Dibutyl-4-(2-quinolylmethoxy)-1-indanol], the IC50 came to 210 nM.
Still for that read-out and setting: with `CCCCC1(CCCC)CCc2c(OCc3ccc(C(N)=O)cc3)cccc2C1O` (stereo not drawn) [Example 16, 2,2-Dibutyl-5-(4-carbamoylbenzyloxy)-1,2,3,4-tetrahydro-1-naphthol] the figure was 370 nM.
On the same count and under the same terms, next, `CCCCC1CCc2c(OCc3ccc4ccccc4n3)cccc2C1=O` (stereo not drawn) [Example 17, 2-Butyl-3,4-dihydro-5-(2-quinolylmethoxy)-1(2H)-naphthalenone]: 1900 nM.
The same measure, in the same setting: with `CCCCC1(CCCC)CCc2ccc(OCc3ccc4ccccc4n3)cc2C1=O` [Example 19, 2,2-Dibutyl-3,4-dihydro-7-(2-quinolylmethoxy)-1(2H)-naphthalenone] the figure was 1100 nM.
Take `CCCCC1CCc2c(OCc3ccc4ccccc4n3)cccc2C1O` (stereo not drawn) [Example 20, 2-Butyl-5-(2-quinolylmethoxy)-1,2,3,4-tetrahydro-1-naphthol]: the half-maximal inhibitory concentration (IC50) was 83 nM.
Same read-out and setting: with `CCCCC1CCc2ccc(OCc3ccc4ccccc4n3)cc2C1O` (stereo not drawn) [Example 21, 2-butyl-7-(2-quinolylmethoxy)-1,2,3,4-tetrahydro-1-naphthol hydrochloride] the figure was 430 nM; with `CCCCC1(CCCC)CCc2ccc(OCc3ccc4ccccc4n3)cc2C1O` (stereo not drawn) [Example 22, 2,2-Dibutyl-7-(2-quinolylmethoxy)-1,2,3,4-tetrahydro-1-naphthol hydrochloride], 860 nM.
Same read-out and setting: next, `CCCCC1CCc2ccc(OCc3ccc4ccccc4n3)cc2C1=O` (stereo not drawn) [Example 23, 2-Butyl-3,4-dihydro-7-(2-quinolylmethoxy)-1(2H)-naphthalenone hydrochloride]: 1100 nM; `CCCCC1(CCCC)CCc2c(OCc3ccc4ccccc4n3)cccc2C1=O` [Example 25, 2,2-Dibutyl-3,4-dihydro-5-(2-quinolylmethoxy)-(1(2H)-naphthalenone hydrochloride]: 620 nM.
`CCCCC1(CCCC)CCc2c(OCc3nc4ccccc4n3C)cccc2C1O` (stereo not drawn) [Example 26, 2,2-Dibutyl-5-[2-(1-methylbenzimidazolyl)methoxy]-1,2,3,4-tetrahydro-1-naphthol]: the IC50 turned out to be 210 nM.
Same read-out and setting: next, `CCCCC1(CCCC)CCc2c(OCC3=C(C)C(=O)c4ccccc4C3=O)cccc2C1O` (stereo not drawn) [Example 27, 2,2-Dibutyl-5-[2-(3-methyl-1,4-naphthalenedionyl)methoxy]-1,2,3,4-tetrahydro-1-naphthol]: 300 nM.
Still for that read-out and setting: next, `CCCCC1(CCCC)CCc2c(OCc3ccc4ccccc4n3)ccc(Cl)c2C1O` (stereo not drawn) [Example 33, 8-chloro-2,2-dibutyl-5-(2-quinolylmethoxy)-1,2,3,4-tetrahydro-1-naphthol]: 14 nM; `CCCCC1(CCCC)CCc2c(OCc3ccc4ccccc4n3)ccc(F)c2C1O` (stereo not drawn) [Example 34, 2,2-Dibutyl-8-fluoro-5-(2-quinolylmethoxy)-1,2,3,4-tetrahydro-1-naphthol]: 2.2 nM.
On the same count and under the same terms, with `CCCCC1(CCCC)CCc2c(OCc3ccc4ccccc4n3)ccc(C)c2C1O` (stereo not drawn) [Example 35, 2,2-Dibutyl-8-methyl-5-(2-quinolylmethoxy)-1,2,3,4-tetrahydro-1-naphthol] the figure was 6.5 nM; with `CCCCC1(CCCC)CCc2c(OCc3ccc4ccccc4n3)ccc(O)c2C1O` (stereo not drawn) [Example 36, 2,2-Dibutyl-8-hydroxy-5-(2-quinolylmethoxy)-1,2,3,4-tetrahydro-1-naphthol hydrochloride], 120 nM.
As for `CC(C)CC1(CC(C)C)CCc2c(OCc3ccc4ccccc4n3)cccc2C1O` (stereo not drawn) [Example 37, 2,2-Diisobutyl-5-(2-quinolylmethoxy)-1,2,3,4-tetrahydro-1-naphthol], the half-maximal inhibitory concentration (IC50) stood at 2.5 nM.
The same measure, in the same setting: next, `CCCCC1(CCCC)CCc2c(OCc3ccc4ccccc4n3)ccc(O)c2C1=O` [Example 38, 2,2-Dibutyl-3,4-dihydro-8-hydroxy-5-(2-quinolylmethoxy)-1(2H)-naphthalenonehydrochloride]: 360 nM; `CCCCC1(CCCC)CCc2c(OCc3ccc4ccccc4n3)ccc(C)c2C1=O` [Example 39]: 640 nM.
